Measurements: US11230556B2 (Merck Sharp & Dohme Corp., priority 2016, dated 2022)

The compounds below were run against T1, human M4 muscarinic acetylcholine receptor (Homo sapiens, UniProt P08173) (assay: human FLIPR-based M4 PAM assay (CHO-K1 cells with human M4 receptor and Gαqi5, calcium dye fluorescence, acetylcholine at 20% of maximum response)). Settings: inflection point (IP) of 4 parameter logistic dose response curve, human M4 receptor + Gαqi5, FLIPR Tetra.
T1 construct: expressed in transfected cells; host or cells: CHO-K1
T1 sequence (P08173 1-479): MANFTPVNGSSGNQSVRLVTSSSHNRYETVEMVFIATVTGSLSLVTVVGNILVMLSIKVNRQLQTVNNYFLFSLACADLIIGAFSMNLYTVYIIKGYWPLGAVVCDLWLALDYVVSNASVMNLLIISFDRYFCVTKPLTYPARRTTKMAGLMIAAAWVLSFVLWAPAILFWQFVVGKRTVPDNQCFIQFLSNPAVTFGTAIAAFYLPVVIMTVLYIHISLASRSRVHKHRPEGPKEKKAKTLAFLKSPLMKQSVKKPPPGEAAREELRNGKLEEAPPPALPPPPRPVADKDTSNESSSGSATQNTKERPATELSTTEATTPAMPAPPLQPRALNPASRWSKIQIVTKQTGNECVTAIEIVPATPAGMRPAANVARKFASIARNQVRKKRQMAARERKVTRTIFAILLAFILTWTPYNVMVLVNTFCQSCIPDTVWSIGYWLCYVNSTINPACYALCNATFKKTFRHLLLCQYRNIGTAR
Type: cell-based
Experimental: In a typical experiment the M4 muscarinic acetylcholine receptor modulating activity of the compounds of the present invention was determined in accordance with the following experimental method. CHO-K1 cells stably transfected with human M4 receptor and chimeric G-protein Gαqi5 (Coward P, et al., Analytical Biochemistry, 270:242-248 (1999)) are thawed from liquid N2 storage, resuspended in growth medium, plated in black, clear bottom 384 well plates, and incubated 16-20 hours at 37° C., 5% CO2. On the day of assay, growth medium is removed, the cells are washed 2 times with wash buffer, and cells are incubated in dye loading buffer at 37° C., 5% CO2 for ˜1 hour. Following dye loading the cell plates are placed in a FLIPR Tetra instrument and while monitoring dye fluorescence (excitation […]), 10 uL of test substance at increasing concentrations is added, and fluorescence values are recorded for 4 min. Next, 10 uL of acetylcholine is added (final concentration calculated so as to achieve 20% of the maximum acetycholine response), and the fluorescence reading is continued for 3.5 min. In some cases, a third addition of acetylcholine (final concentration calculated to achieve 70% of the maximal acetylcholine response) is performed. The resulting dose response curves are fit to a 4 parameter logistic equation and the final result is determined as the inflection point (IP) of the curve
CHO-K1 cells stably transfected with human M4 receptor and chimeric G-protein Gαqi5 are thawed from liquid N2 storage, resuspended in growth medium, plated in black, clear bottom 384 well plates, and incubated 16-20 hours at 37° C., 5% CO2.
On the day of assay, growth medium is removed, the cells are washed 2 times with wash buffer, and cells are incubated in dye loading buffer at 37° C., 5% CO2 for ˜1 h. Following dye loading the cell plates are placed in a FLIPR Tetra instrument and while monitoring dye fluorescence ([…]), 10 uL of test substance at increasing concentrations is added, and fluorescence values are recorded for 4 min. Next, 10 uL of acetylcholine is added (final concentration calculated so as to achieve 20% of the maximum acetycholine response), and the fluorescence reading is continued for 3.5 min. In some cases, a third addition of acetylcholine (final concentration calculated to achieve 70% of the maximal acetylcholine response) is performed.
Work on `Cc1cc2c(=O)[nH]n(C)c2nc1N1CCC(Oc2ccc3cn[nH]c3c2)CC1` [Example 27, 6-(4-((1H-indazol-6-yl)oxy)piperidin-1-yl)-1,5-dimethyl-1,2-dihydro-3H-pyrazolo[3,4-b]pyridin-3-one] yielded an EC50 of 71 nM.
For `COc1ccc(OC2CCN(c3nc4nccn4c(Cl)c3C)CC2)cn1` [Example 28, 5-chloro-7-(4-((6-methoxypyridin-3-yl)oxy)piperidin-1-yl)-6-methylimidazo[1,2-a]pyrimidine], the EC50 was 589 nM.
For `COc1ccc(OC2CCN(c3nc4c(cc3C)C(=O)OC4(C)C)CC2)cn1` [Example 30, 2-(4-((6-methoxypyridin-3-yl)oxy)piperidin-1-yl)-3,7,7-trimethylfuro[3,4-b]pyridin-5(7H)-one], the EC50 was 856 nM.
Work on `Cc1cc2c(nc1N1CCC(Oc3ccccc3)CC1)COC2=O` [Example 31, 3-methyl-2-(4-phenoxypiperidin-1-yl)furo[3,4-b]pyridin-5(7H)-one] yielded an EC50 of 17 nM.
Compound `Cc1cc2c(nc1N1CCC(Oc3cccc(C#N)c3)CC1)COC2=O` [Example 32, 3-((1-(3-methyl-5-oxo-5,7-dihydrofuro[3,4-b]pyridin-2-yl)piperidin-4-yl)oxy)benzonitrile] has an EC50 of 14 nM.
`COc1ccc(OC2CCN(c3nc4c(cc3C)C(=O)OC4CO)CC2)cn1` (stereo not drawn) [Example 33, 7-(Hydroxymethyl)-2-(4-((6-methoxypyridin-3-yl)oxy)piperidin-1-yl)-3-methylfuro[3,4-b]pyridin-5(7H)-one] showed an EC50 of 34 nM.
Compound `COc1ccc(OC2CCN(c3nc4c(cc3C)CNC4)CC2)cn1` [Example 34, 2-(4-((6-Methoxypyridin-3-yl)oxy)piperidin-1-yl)-3-methyl-6,7-dihydro-5H-pyrrolo[3,4-b]pyridine] has an EC50 of 349 nM.
With `Cc1cc2c(nc1N1CCC(Oc3ccccc3)CC1)CNC2` [Example 35, 3-methyl-2-(4-phenoxypiperidin-1-yl)-6,7-dihydro-5H-pyrrolo[3,4-b]pyridine] the EC50 was 76 nM.
Compound `COc1ccc(OC2CCN(c3nc4c(cc3C)CN(Cc3ccncc3)C4=O)CC2)cn1` [Example 36, 2-(4-((6-Methoxypyridin-3-yl)oxy)piperidin-1-yl)-3-methyl-6-(pyridin-4-ylmethyl)-5,6-dihydro-7H-pyrrolo[3,4-b]pyridin-7-one] has an EC50 of 672 nM.
`COc1ccc(OC2CCN(c3nc4c(cc3C)CN(CCO)C4)CC2)cn1` [Example 37, 2-(2-(4-((6-methoxypyridin-3-yl)oxy)piperidin-1-yl)-3-methyl-5,7-dihydro-6H-pyrrolo[3,4-b]pyridin-6-yl)ethan-1-ol] gave an EC50 of 133 nM.
`COc1ccc(OC2CCN(c3nc4c(cnn4C)cc3C)CC2)cn1` [Example 38, 6-(4-((6-methoxypyridin-3-yl)oxy)piperidin-1-yl)-1,5-dimethyl-1H-pyrazolo[3,4-b]pyridine] was tested, and the EC50 was 397 nM.
Compound `COc1ccc(OC2CCN(c3nc4c(cc3C)CN(C(=O)CCO)C4)CC2)cn1` [Example 39, 3-Hydroxy-1-(2-(4-((6-methoxypyridin-3-yl)oxy)piperidin-1-yl)-3-methyl-5,7-dihydro-6H-pyrrolo[3,4-b]pyridin-6-yl)propan-1-one] has an EC50 of 77 nM.
In the case of `COc1ccc(OC2CCN(c3nc4c(cc3C)CN(C(C)=O)C4)CC2)cn1` [Example 40, 1-(2-(4-((6-methoxypyridin-3-yl)oxy)piperidin-1-yl)-3-methyl-5,7-dihydro-6H-pyrrolo[3,4-b]pyridin-6-yl)ethan-1-one], the EC50 is reported as 162 nM.
In the case of `COc1ccc(OC2CCN(c3nc4c(cc3C)CN(C(=O)C3CC3)C4)CC2)cn1` [Example 41, cyclopropyl(2-(4-((6-methoxypyridin-3-yl)oxy)piperidin-1-yl)-3-methyl-5,7-dihydro-6H-pyrrolo[3,4-b]pyridin-6-yl)methanone], the EC50 is reported as 153 nM.
With `COc1ccc(OC2CCN(c3nc4c(cc3C)CN(C(=O)C3(C)COC3)C4)CC2)cn1` [Example 42, (2-(4-((6-methoxypyridin-3-yl)oxy)piperidin-1-yl)-3-methyl-5,7-dihydro-6H-pyrrolo[3,4-b]pyridin-6-yl)(3-methyloxetan-3-yl)methanone] the EC50 was 200 nM.
With `CCOC(=O)N1Cc2cc(C)c(N3CCC(Oc4ccc(OC)nc4)CC3)nc2C1` [Example 43, ethyl 2-(4-((6-methoxypyridin-3-yl)oxy)piperidin-1-yl)-3-methyl-5,7-dihydro-6H-pyrrolo[3,4-b]pyridine-6-carboxylate] the EC50 was 157 nM.
Compound `COc1ccc(OC2CCN(c3nc4c(cc3C)CN(C(=O)C3(C)CCCC3)C4)CC2)cn1` [Example 44, (2-(4-((6-methoxypyridin-3-yl)oxy)piperidin-1-yl)-3-methyl-5,7-dihydro-6H-pyrrolo[3,4-b]pyridin-6-yl)(1-methylcyclopentyl)methanone] has an EC50 of 489 nM.
In the case of `COc1ccc(OC2CCN(c3nc4c(cc3C)CN(C(=O)C(C)(C)C)C4)CC2)cn1` [Example 45, 1-(2-(4-((6-methoxypyridin-3-yl)oxy)piperidin-1-yl)-3-methyl-5,7-dihydro-6H-pyrrolo[3,4-b]pyridin-6-yl)-2,2-dimethylpropan-1-one], the EC50 is reported as 235 nM.
In the case of `COc1ccc(OC2CCN(c3nc4c(cc3C)CN(C(=O)C3CCCC3)C4)CC2)cn1` [Example 46, cyclopentyl(2-(4-((6-methoxypyridin-3-yl)oxy)piperidin-1-yl)-3-methyl-5,7-dihydro-6H-pyrrolo[3,4-b]pyridin-6-yl)methanone], the EC50 is reported as 306 nM.
With `Cc1cc2c(nc1N1CCC(Oc3ccccc3)CC1)CN(C(=O)C1CC1)C2` [Example 47, cyclopropyl(3-methyl-2-(4-phenoxypiperidin-1-yl)-5,7-dihydro-6H-pyrrolo[3,4-b]pyridin-6-yl)methanone] the EC50 was 113 nM.
Work on `COc1ccc(OC2CCN(c3nc4c(cc3C)CN(C(=O)C3CCO3)C4)CC2)cn1` (stereo not drawn) [Example 48, (2-(4-((6-methoxypyridin-3-yl)oxy)piperidin-1-yl)-3-methyl-5,7-dihydro-6H-pyrrolo[3,4-b]pyridin-6-yl)(oxetan-2-yl)methanone] yielded an EC50 of 167 nM.
For `COc1ccc(OC2CCN(c3nc4c(cc3C)CN(C(=O)C3CC(F)(F)C3)C4)CC2)cn1` [Example 49, (3,3-difluorocyclobutyl)(2-(4-((6-methoxypyridin-3-yl)oxy)piperidin-1-yl)-3-methyl-5,7-dihydro-6H-pyrrolo[3,4-b]pyridin-6-yl)methanone], the EC50 was 126 nM.
`COc1ccc(OC2CCN(c3nc4c(cc3C)CN(C(=O)c3ccc[nH]3)C4)CC2)cn1` [Example 50, (2-(4-((6-methoxypyridin-3-yl)oxy)piperidin-1-yl)-3-methyl-5,7-dihydro-6H-pyrrolo[3,4-b]pyridin-6-yl)(1H-pyrrol-2-yl)methanone] was tested, and the EC50 was 481 nM.
Work on `COc1ccc(OC2CCN(c3nc4c(cc3C)CN(C(=O)[C@H](C)O)C4)CC2)cn1` [Example 51, (S)-2-hydroxy-1-(2-(4-((6-methoxypyridin-3-yl)oxy)piperidin-1-yl)-3-methyl-5,7-dihydro-6H-pyrrolo[3,4-b]pyridin-6-yl)propan-1-one] yielded an EC50 of 109 nM.
With `COc1ccc(OC2CCN(c3nc4c(cc3C)CN(C(=O)C3CN(C)C3)C4)CC2)cn1` [Example 52, (2-(4-((6-methoxypyridin-3-yl)oxy)piperidin-1-yl)-3-methyl-5,7-dihydro-6H-pyrrolo[3,4-b]pyridin-6-yl)(1-methylazetidin-3-yl)methanone] the EC50 was 453 nM.
`COc1ccc(OC2CCN(c3nc4c(cc3C)CN(C(=O)CCN(C)C)C4)CC2)cn1` [Example 53, 3-(dimethylamino)-1-(2-(4-((6-methoxypyridin-3-yl)oxy)piperidin-1-yl)-3-methyl-5,7-dihydro-6H-pyrrolo[3,4-b]pyridin-6-yl)propan-1-one] was tested, and the EC50 was 502 nM.
`COc1ccc(OC2CCN(c3nc4c(cc3C)CN(C(=O)CN(C)C)C4)CC2)cn1` [Example 54, 2-(dimethylamino)-1-(2-(4-((6-methoxypyridin-3-yl)oxy)piperidin-1-yl)-3-methyl-5,7-dihydro-6H-pyrrolo[3,4-b]pyridin-6-yl)ethan-1-one] gave an EC50 of 238 nM.
